Values quoted from earlier work in US11458160B2, “Food supplements for use in the prophylaxis and treatment of migraine” (CRISTALFARMA S.R.L., priority 2017, dated 2022).

What was measured:
[1] = magnesium sulphate intravenously, same amount
[2] = weeks 9-12; 600 mg magnesium per day orally for 12 weeks; 81 patients; p<0.05

Row | SMILES | efficacy compared with intravenous ketorolac [1] | reduction of attack frequency compared to the baseline [2]
1 | O=S(=O)([O-])[O-].[Mg+2] [magnesium sulphate] | as effective as an intravenously administered NSAID such as ketorolac | 
2 | O=C([O-])CC(O)(CC(=O)[O-])C(=O)[O-].O=C([O-])CC(O)(CC(=O)[O-])C(=O)[O-].[Mg+2].[Mg+2].[Mg+2] [magnesium, tri-magnesium di-citrate] |  | 41.6%
